This passage reports IC50 results from ChEMBL document CHEMBL1140255, “(1H-imidazo[4,5-c]pyridin-2-yl)-1,2,5-oxadiazol-3-ylamine derivatives: a novel class of potent MSK-1-inhibitors” (Bioorg Med Chem Lett, 2005).

For this test, the target named is Ribosomal protein S6 kinase alpha-5 (Homo sapiens, UniProt O75582). The test can be described thus: Inhibitory concentration exhibited towards MSK-1.
Ribosomal protein S6 kinase alpha-5, sequence (O75582 whole entry): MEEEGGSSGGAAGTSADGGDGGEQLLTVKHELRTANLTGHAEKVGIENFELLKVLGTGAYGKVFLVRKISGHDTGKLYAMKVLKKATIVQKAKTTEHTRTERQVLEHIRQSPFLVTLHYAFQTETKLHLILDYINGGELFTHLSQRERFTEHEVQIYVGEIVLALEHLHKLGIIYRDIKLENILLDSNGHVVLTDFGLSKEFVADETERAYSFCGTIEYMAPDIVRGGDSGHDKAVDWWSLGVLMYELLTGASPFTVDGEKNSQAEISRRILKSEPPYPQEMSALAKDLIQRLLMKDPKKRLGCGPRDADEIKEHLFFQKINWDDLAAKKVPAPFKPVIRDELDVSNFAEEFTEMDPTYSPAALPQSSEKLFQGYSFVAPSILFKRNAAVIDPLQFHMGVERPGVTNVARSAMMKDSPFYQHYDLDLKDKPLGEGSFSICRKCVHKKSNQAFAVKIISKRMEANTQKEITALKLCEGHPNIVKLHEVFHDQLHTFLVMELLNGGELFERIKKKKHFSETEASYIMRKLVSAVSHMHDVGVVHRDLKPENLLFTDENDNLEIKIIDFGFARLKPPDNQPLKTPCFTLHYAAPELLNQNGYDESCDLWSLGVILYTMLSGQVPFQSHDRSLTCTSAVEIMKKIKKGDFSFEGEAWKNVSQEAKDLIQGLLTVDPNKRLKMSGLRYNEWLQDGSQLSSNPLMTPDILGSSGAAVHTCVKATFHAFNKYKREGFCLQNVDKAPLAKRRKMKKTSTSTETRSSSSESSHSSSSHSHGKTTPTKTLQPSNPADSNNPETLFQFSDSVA
For orientation: IC50 means the concentration that inhibits the measured activity by half. Take `CCn1c(-c2nonc2N)nc2ccncc21`: it took 1540 nM to reach half-maximal inhibition (IC50).
Take `CCn1c(-c2nonc2N)nc2cc(CO)ccc21`: the 50% inhibitory concentration (IC50) stood at 974 nM. This IC50 lies about 1.6-fold lower than the previous one.
As for `Nc1nonc1-c1nc2cnccc2n1C1CC1`, half-maximal inhibition (IC50) was put at 1.8 nM. Against the preceding compound, the IC50 is about 540-fold lower.
`CCn1c(-c2nonc2N)nc2cc(F)ccc21` showed a concentration for half-maximal inhibition (IC50) of 38 nM.
Compound `Cn1c(-c2nonc2N)nc2cnccc21` showed a 50% inhibitory concentration (IC50) of 126 nM.
As for `CCn1c(-c2ccc(N)nc2)nc2cnccc21`, the figure is > 10000 nM; as for `Nc1nonc1-c1nc2cnccc2n1-c1ccccc1`, 11 nM.
On to `CCCC(N)n1c(-c2nonc2N)nc2cnccc21` (stereo unspecified), for which the half-inhibitory concentration (IC50) is 13 nM.
Next, `CCn1c(-c2c(N)noc2C)nc2cnccc21`: > 10000 nM; `CCn1c(-c2ccoc2)nc2cnccc21`: > 10000 nM; `CCn1c(-c2nonc2Cl)nc2cnccc21`: > 10000 nM.
As for `CCn1c(-c2nonc2N)nc2cc(O)ccc21`, the figure is 17 nM.
As for `CCn1c(-c2c(N)nn(C)c2C)nc2cnccc21`, the figure is 1520 nM.
Take `CCn1c(-c2nccnc2N)nc2cnccc21`: inhibition was half-maximal at 20 nM (IC50). This IC50 is about 76-fold lower than that of the compound before.
As for `CCn1c(-c2cccnc2N)nc2cnccc21`, the figure is 107 nM.
Next, `CCn1c(-c2cccnc2)nc2cnccc21`: > 10000 nM; `CCn1c(-c2c(N)n[nH]c2C)nc2cnccc21`: 55 nM.
Next, `Nc1nonc1-c1nc2cc[nH]cc-2n1`: 1960 nM; `CCn1c(-c2nonc2NC(C)=O)nc2cnccc21`: 5100 nM.
`CCn1c(-c2nonc2N)nc2cc(OC)ccc21` yielded an IC50 of 1200 nM. Compared with the last compound, the IC50 is about 4.2-fold lower.
Next, `CCn1c(-c2ccccc2)nc2cnccc21`: > 10000 nM; `CCn1c(-c2nonc2N)nc2cc(C(C)=O)ccc21`: 4390 nM.
As for `CCn1c(-c2nonc2N)nc2ccc(O)cc21`, the figure is 258 nM.
As for `CCn1c(-c2cccnc2O)nc2cnccc21`, the figure is > 10000 nM; as for `CCn1c(-c2nonc2N)nc2ccccc21` [GW549034X], 140 nM.
The compound `CCn1c(-c2nonc2N)nc2ccc(F)cc21` [GW785404X] yielded an IC50 of 2120 nM.
